Drawing on ChEMBL document CHEMBL1127505, “Structure-activity relationships of new taxoids derived from 14 beta-hydroxy-10-deacetylbaccatin III” (J Med Chem, 1994), this text covers IC50 for 5 compounds.

Usually IC50 stands for the midpoint of a concentration-inhibition curve.

Assay type in all cases: functional, cell-based
The test system of one test is A549. In words: In vitro cytotoxicity against human non-small cell lung carcinoma A549.
The test system of a further test is A121. In words: In vitro cytotoxicity against human ovarian carcinoma […].
Another test concerns HT-29. In words: In vitro cytotoxicity against human colon carcinoma HT-29.
In test [1] the test system is MCF7. In words: In vitro cytotoxicity against human mammary carcinoma cells 180 fold resistant to adriamycin MCF7-R.
The test system of test [2] is MCF7. Kind of test: In vitro cytotoxicity against human mammary carcinoma MCF-7.

Regarding `CC(=O)O[C@@]12CO[C@@H]1C[C@H](O)[C@@]1(C)C(=O)[C@H](O)C3=C(C)[C@@H](OC(=O)[C@H](O)[C@@H](NC(=O)OC(C)(C)C)c4ccccc4)[C@@H]4OC(=O)O[C@]4([C@@H](OC(=O)c4ccccc4)C12)C3(C)C` (some centres not stated), the IC50 is 2.1 nM in the test with A549; 6.2 nM in the test on A121; 1.8 nM in the test on HT-29; 543 nM in the test on MCF7 [1]; 1.8 nM in the test on MCF7 [2].
Take `CC(=O)O[C@H]1C(=O)[C@@]2(C)[C@H]([C@H](OC(=O)c3ccccc3)[C@]3(O)C[C@H](OC(=O)[C@H](O)[C@@H](NC(=O)c4ccccc4)c4ccccc4)C(C)=C1C3(C)C)[C@]1(OC(C)=O)CO[C@@H]1C[C@@H]2O` [PACLITAXEL]: the IC50 in the test with A121 was 6.1 nM; in the test with HT-29, 3.2 nM.
As for `CC(=O)O[C@@]12CO[C@@H]1C[C@H](O)[C@@]1(C)C(=O)[C@H](O)C3=C(C)[C@@H](O)[C@H](OC(=O)[C@@H](O)C(NC(=O)c4ccccc4)c4ccccc4)[C@@](O)([C@@H](OC(=O)c4ccccc4)C12)C3(C)C` (some centres not stated), the IC50 is 512 nM in the test with A549; 1040 nM in the test with A121; 248 nM in the test on HT-29; > 1000 nM with MCF7 [1]; 269 nM in the test on MCF7 [2].
The like results for `CC(=O)O[C@@]12CO[C@@H]1C[C@H](O)[C@@]1(C)C(=O)[C@H](O)C3=C(C)[C@@H](O)[C@H](OC(=O)[C@@H](O)C(NC(=O)OC(C)(C)C)c4ccccc4)[C@@](O)([C@@H](OC(=O)c4ccccc4)C12)C3(C)C` (some centres not stated) were, in that order, 31 nM, 80 nM, 50 nM, > 1000 nM and 26 nM.
In the case of `CC(=O)O[C@@]12CO[C@@H]1C[C@H](O)[C@@]1(C)C(=O)[C@H](O)C3=C(C)[C@@H](OC(=O)[C@H](O)[C@@H](NC(=O)c4ccccc4)c4ccccc4)[C@@H]4OC(=O)O[C@]4([C@@H](OC(=O)c4ccccc4)C12)C3(C)C` (some centres not stated), the IC50 in the test with A549 was 33 nM; with A121 it was 105 nM; with HT-29, 24 nM; with MCF7 [1], > 1000 nM; in the test with MCF7 [2] it was 11 nM.
